≈ marks a conversion by molar mass, not a printed value.
How the values were obtained:
Assay type in all cases: cell-based
[1] = tested on: bacteria, Gluconobacter sp. 222; assay: Bacteria experiments, growth after heat + pasteurisation adjunct; settings: 0-100 ppm, growth measured visually at 14 days
Method: Rows of 30 ml tubes containing 10 ml soft drink, pH 3.4, were equilibrated at the required temperature for 7 minutes in a water bath, before inoculation with 10^4 cells/ml of the bacteria, Gluconobacter sp. 222. Tubes were held at temperature for 2 minutes before being cooled rapidly in cold water for 5 minutes. Tubes were then incubated for 14 days at 25° C. to allow surviving bacteria to grow out. At 14 days growth was measured visually.

[2] = tested on: yeast Saccharomyces cerevisiae X2180-1B; assay: Ready to Drink tea experiments, yeast growth after heat + pasteurisation adjunct; settings: 0-200 ppm, OD 600 nm at 14 days; for effect of heat+pasteurisation adjunct on yeast growth: Ready to Drink tea 0.14% tea pH 3.4, held at temperature 2 minutes; for effect of pasteurisation adjunct at low temperature on yeast growth: Ready to Drink tea 0.14% tea pH 3.4, low temperature
Method: Rows of 30 ml tubes containing 10 ml RTD tea, pH 3.4, were equilibrated at the required temperature for 7 minutes in a water bath, before inoculation with 10^4 cells/ml of the yeast Saccharomyces cerevisiae […]-1B. Tubes were held at temperature for 2 minutes before being cooled rapidly in cold water for 5 minutes. Tubes were then incubated for 14 days at 25° C. to allow surviving yeasts to grow out. At 14 days growth was measured by optical density at 600 nm in x11 diluted samples. […] Rows of 30 ml tubes containing 10 ml RTD tea, pH 3.4, were equilibrated at the required temperature for 7 minutes in a water bath, before inoculation with 10^4 cells/ml of the yeast Saccharomyces cerevisiae […]-1B. Tubes were held at temperature for 2 minutes before being cooled rapidly in cold water for 5 minutes. Tubes were then incubated for 14 days at 25° C. to allow surviving yeasts to grow out. At 14 days growth was measured by optical density at 600 nm in x11 diluted samples. […] Rows of 30 ml tubes containing 10 ml RTD tea, pH 3.4, were equilibrated at the required temperature for 7 minutes in a water bath, before inoculation with 10^4 cells/ml of the yeast Saccharomyces cerevisiae […]-1B. Tubes were held at temperature for 2 minutes before being cooled rapidly in cold water for 5 minutes. Tubes were then incubated for 14 days at 25° C. to allow surviving yeasts to grow out. At 14 days growth was measured by optical density at 600 nm in x11 diluted samples. […] Rows of 30 ml tubes containing 10 ml RTD tea, pH 3.4, were equilibrated at the required temperature for 7 minutes in a water bath, before inoculation with 10^4 cells/ml of the yeast Saccharomyces cerevisiae […]-1B. Tubes were held at temperature for 2 minutes before being cooled rapidly in cold water for 5 minutes. Tubes were then incubated for 14 days at 25° C. to allow surviving yeasts to grow out. At 14 days growth was measured by optical density at 600 nm in x11 diluted samples. […] Rows of 30 ml tubes containing 10 ml RTD tea, pH 3.4, were equilibrated at the required temperature for 7 minutes in a water bath, before inoculation with 10^4 cells/ml of the yeast Saccharomyces cerevisiae […]-1B. Tubes were held at temperature for 2 minutes before being cooled rapidly in cold water for 5 minutes. Tubes were then incubated for 14 days at 25° C. to allow surviving yeasts to grow out. At 14 days growth was measured by optical density at 600 nm in x11 diluted samples. […] Rows of 30 ml tubes containing 10 ml RTD tea, pH 3.4, were equilibrated at the required temperature for 7 minutes in a water bath, before inoculation with 10^4 cells/ml of the yeast Saccharomyces cerevisiae […]-1B. Tubes were held at temperature for 2 minutes before being cooled rapidly in cold water for 5 minutes. Tubes were then incubated for 14 days at 25° C. to allow surviving yeasts to grow out. At 14 days growth was measured by optical density at 600 nm in x11 diluted samples. […] Rows of 30 ml tubes containing 10 ml RTD tea, pH 3.4, were equilibrated at the required temperature for 7 minutes in a water bath, before inoculation with 10^4 cells/ml of the yeast Saccharomyces cerevisiae […]-1B. Tubes were held at temperature for 2 minutes before being cooled rapidly in cold water for 5 minutes. Tubes were then incubated for 14 days at 25° C. to allow surviving yeasts to grow out. At 14 days growth was measured by optical density at 600 nm in x11 diluted samples. […] Rows of 30 ml tubes containing 10 ml RTD tea, pH 3.4, were equilibrated at the required temperature for 7 minutes in a water bath, before inoculation with 10^4 cells/ml of the yeast Saccharomyces cerevisiae […]-1B. Tubes were held at temperature for 2 minutes before being cooled rapidly in cold water for 5 minutes. Tubes were then incubated for 14 days at 25° C. to allow surviving yeasts to grow out. At 14 days growth was measured by optical density at […] in x11 diluted samples.

[3] = tested on: yeast Saccharomyces cerevisiae X2180-1B; assay: Fungicidal activity / MIC at 50° C. versus 30° C., yeast survival in YEPD broth pH 3.4; settings: for MIC: Saccharomyces cerevisiae, read-out: MIC50; for MIC / MIC50: minimum inhibitory concentration; for fungicidal activity when heated to 50° C. / MIC / MIC50: 50° C.; for Importance: rating as pasteurisation adjunct
Method: In the table the minimum inhibitory concentration (MIC) is given for each compound as well as the molecular weight (M.W.), the logPoct and a rating of its importance. […] The logPoct, that is the logarithm of the partition coefficient of the relevant compound in octanol and thus a measure of its […], was determined using […]™ software from the CHEMOFFICE ULRA ENHANCED 2000™ software package (version 5.5) that is commercially available from CambridgeSoft.
(§1) YEPD contained glucose, 20 g/l, peptone 20 g/l and yeast extract 10 g/l. Rows of 30 ml tubes containing 10 ml YEPD, pH 3.4, were equilibrated at the required temperature for 7 minutes in a water bath, before inoculation with 10^4 cells/ml of the yeast Saccharomyces cerevisiae X2180-1B. Tubes were held at temperature for 10 minutes before being cooled rapidly in cold water for 5 minutes. Tubes were then incubated for 48 hours at 25° C. to allow surviving yeasts to grow out, and form discrete colonies.
as §1, §1, §1

| Compound | MIC [3] | Importance [3] | other results |
| --- | --- | --- | --- |
| CCCCCCCCCCOC(C)=O [Decyl acetate] | 1 mM | High (High effects compounds, most preferred, generally showed at least a 5 fold decrease in MIC, minimum inhibitory concentration at 50 °C compared with 30° C.) | effect of heat+pasteurisation adjunct on bacteria ([1]; Ready to Drink tea or synthetic soft drink pH 3.4, 2 minutes at temperature): remarkable combined synergistic effect; effect of pasteurisation adjunct at low temperature on growth ([1]; Ready to Drink tea or synthetic soft drink pH 3.4, low temperature): little effect; effect of heat+pasteurisation adjunct on yeast growth [2]: remarkable combined synergistic effect; effect of pasteurisation adjunct at low temperature on yeast growth [2]: little effect; fungicidal activity at 30° C. [3]: no fungicidal activity; fungicidal activity when heated to 50° C. [3]: significant fungicidal activity |
| CCCCCCCC=CC(=O)OCC [Ethyl 2-decenoate] | 1 mM (≈ 198 µg/mL) | High (High effects compounds, most preferred, generally showed at least a 5 fold decrease in MIC, minimum inhibitory concentration at 50 °C compared with 30° C.) | effect of heat+pasteurisation adjunct on yeast growth [2]: remarkable combined synergistic effect; effect of pasteurisation adjunct at low temperature on yeast growth [2]: little effect |
| CC(=O)OC/C=C(\C)CCC=C(C)C [Geranyl acetate] | 1 mM | High (High effects compounds, most preferred, generally showed at least a 5 fold decrease in MIC, minimum inhibitory concentration at 50 °C compared with 30° C.) | effect of heat+pasteurisation adjunct on yeast growth [2]: remarkable combined synergistic effect; effect of pasteurisation adjunct at low temperature on yeast growth [2]: little effect |
| CC(=O)CC/C=C(\C)CCC=C(C)C [Geranylacetone] | 0.5 mM (≈ 97.2 µg/mL) | High (High effects compounds, most preferred, generally showed at least a 5 fold decrease in MIC, minimum inhibitory concentration at 50 °C compared with 30° C.) | effect of heat+pasteurisation adjunct on yeast growth [2]: remarkable combined synergistic effect; effect of pasteurisation adjunct at low temperature on yeast growth [2]: little effect |
| CCCCCCCCCCCCO [Lauric alcohol] |  | High (High effects compounds, most preferred, generally showed at least a 5 fold decrease in MIC, minimum inhibitory concentration at 50 °C compared with 30° C.) | effect of heat+pasteurisation adjunct on yeast growth [2]: remarkable combined synergistic effect; effect of pasteurisation adjunct at low temperature on yeast growth [2]: little effect; MIC50 [3]: 0.1 mM (≈ 18.6 µg/mL); MIC50 ([3]; given as ppm): 18.6 ppm |
| CCCCCCCCCCCC=O [Lauric aldehyde] |  | High (High effects compounds, most preferred, generally showed at least a 5 fold decrease in MIC, minimum inhibitory concentration at 50 °C compared with 30° C.) | effect of heat+pasteurisation adjunct on yeast growth [2]: remarkable combined synergistic effect; effect of pasteurisation adjunct at low temperature on yeast growth [2]: little effect; MIC50 [3]: 0.2 mM (≈ 36.9 µg/mL); MIC50 ([3]; given as ppm): 36 ppm |
| CCCCCCCCCCCCCC(=O)O [Myristic acid] | 50 mM (≈ 11400 µg/mL) | High (High effects compounds, most preferred, generally showed at least a 5 fold decrease in MIC, minimum inhibitory concentration at 50 °C compared with 30° C.) |  |
| C=CC(C)(O)CCC=C(C)CCC=C(C)C (stereo not drawn) [Nerolidol] | 1.5 mM (≈ 334 µg/mL) | High (High effects compounds, most preferred, generally showed at least a 5 fold decrease in MIC, minimum inhibitory concentration at 50 °C compared with 30° C.) |  |
| CCCC(=O)OC/C=C(/C)CCC=C(C)C [Neryl butyrate] | 50 mM (≈ 11200 µg/mL) | Mod |  |
| CC(C)=CCC/C(C)=C\COC(=O)C(C)C [Neryl isobutyrate] | 30 mM (≈ 6730 µg/mL) | High (High effects compounds, most preferred, generally showed at least a 5 fold decrease in MIC, minimum inhibitory concentration at 50 °C compared with 30° C.) |  |
| CCCCCCCCCOC(C)=O [Nonyl acetate] | 5 mM | High (High effects compounds, most preferred, generally showed at least a 5 fold decrease in MIC, minimum inhibitory concentration at 50 °C compared with 30° C.) |  |
| CCCCCCCCOC(=O)CCC [Octyl butyrate] | 40 mM (≈ 8010 µg/mL) | High (High effects compounds, most preferred, generally showed at least a 5 fold decrease in MIC, minimum inhibitory concentration at 50 °C compared with 30° C.) |  |
| CCCCCCCCCCCCCCC(=O)O [Pantadecanoic acid] |  | Low | MIC50 [3]: 80 mM (≈ 19400 µg/mL) |
| CCCCCCCCCCCCCCCO [Pentadecanol] | 75 mM (≈ 17100 µg/mL) | Low |  |
| CCCCCC(=O)OCCc1ccccc1 [Phenethyl hexanoate] | 10 mM (≈ 2200 µg/mL) | High (High effects compounds, most preferred, generally showed at least a 5 fold decrease in MIC, minimum inhibitory concentration at 50 °C compared with 30° C.) |  |
| CCCCCCCC(=O)OCCc1ccccc1 [Phenethyl octanoate] | 40 mM (≈ 9930 µg/mL) | Mod |  |
| CCCCCCCCCCCCCCO [Tetradecanol] | 50 mM (≈ 10700 µg/mL) | Mod |  |
| CCCCCCCCCCCCC=O [Tridecanal] | 5 mM (≈ 992 µg/mL) | High (High effects compounds, most preferred, generally showed at least a 5 fold decrease in MIC, minimum inhibitory concentration at 50 °C compared with 30° C.) |  |
| CCCCCCCCCCCCC(=O)O [Tridecanoic acid] | 0.2 mM (≈ 42.9 µg/mL) | High (High effects compounds, most preferred, generally showed at least a 5 fold decrease in MIC, minimum inhibitory concentration at 50 °C compared with 30° C.) |  |
| CCCCCCCCCCCCCO [Tridecanol] | 0.05 mM (≈ 10 µg/mL) | High (High effects compounds, most preferred, generally showed at least a 5 fold decrease in MIC, minimum inhibitory concentration at 50 °C compared with 30° C.) |  |
| O=C1CCCCCCCCCCCCCCO1 [w-Pentadecalactone] |  | Low | MIC50 [3]: 60 mM (≈ 14400 µg/mL) |
| C=C1CC/C=C(\C)CC[C@@H]2[C@@H]1CC2(C)C [β-Caryophylene] |  | Low | MIC50 [3]: 70 mM (≈ 14300 µg/mL) |
| methyl decenoate |  |  | fungicidal activity at 30° C. [3]: no fungicidal activity; fungicidal activity when heated to 50° C. [3]: significant fungicidal activity |
| w-6-Hexadecalactone |  | Low | MIC50 [3]: 50 mM |

— US6579556B2, “Ambient stable beverage” (Lipton, division of Conopco, Inc., priority 2000, dated 2003)
